According to paper PMC11062894, “Protein-based bandpass filters for controlling cellular signaling with chemical inputs” (Nature Chemical Biology, 2023):
Where “and” joins values, the source holds several entries; their conditions need not be identical. Equal values may be shown once.

Tested on: GEMS receptors with CBPA11 (BclXL–LD3 and BclXLhigh variants), STAT3-driven SEAP in HEK293T cells
Assay: GEMS SEAP reporter assay, CBPA11 (BclXLhigh, LD3-v and BclXL-v variants) with A-1155463
Assay type: cell-based
Design: key to Raw data (SEAP) / SEAP, replicate values / Raw data of Figure 5b / Raw data Figure 5e / Raw data of Independent repeat of CBPA11-v1 vs CBPA11-v1-LD3v3 / Raw data of Independent repeat of CBPA11-v3 vs CBPA11-v3-LD3v3 / Raw data of Figure 5b, CBPA11-v1-LD3v3 (SEAP reporter raw value, single replicate) / Raw data of Figure 5b, CBPA11-v1 (SEAP reporter raw value, single replicate): SEAP activity in U/L in culture supernatant
Details: for Normalized data (SEAP) / Raw data (SEAP): SuppFigure 9c, LD3v3
Text: To rationally design a CBP responding to a chemical input, we used BclXL as the druglow receptor, LD3 as the designed binder and a designed BclXL variant as the drughigh receptor (referred to as BclXLhigh) to construct a CBP responsive to BclXL inhibitors (Fig. 4a). To design BclXLhigh, we used a multistate design computational protocol described elsewhere[26] […] Thus, BclXLhigh-v(1–3) were chosen as the functional drughigh receptors, resulting in three A-1155463-controlled CBPs (referred to as CBPA11-v(1–3)) (Fig. 4c–e).
HEK293T cells were seeded in a 96-well plate 24 h before transfection. The transfection mix in each well consisted of 3 ng of constitutive human CMV promoter driven mammalian STAT3 expression vector (PhCMV-STAT3-pA), 30 ng of STAT3-induced reporter expression (OStat3-PhCMVmin-SEAP-pA) and 50 ng of expression vectors for each GEMS receptor chain (PSV40-IgK-(drughigh receptor)-EpoRm-IL-6RBm-pA and PSV40-IgK-(druglow receptor-GGGGSX3-LD3)-EpoRm-IL-6RBm-pA). For the specific drughigh receptor and druglow receptor used in the different cellular assays, they are indicated as wild type or with mutations. Then, plasmid DNA was mixed with 50 μl opti-MEM (Thermo Fisher) and 600 ng of polyethyleneimine (Polysciences, catalog no. 24765-1). For drug treatment experiments, drugs were added 12 h post-transfection and incubated with cells for 24 h before the SEAP reporter detection assay.
SEAP activity (U l^−1) in cell culture supernatants was quantified by kinetic measurements at 405 nm (1 minute per measurement for 30 cycles) of absorbance increase due to phosphatase-mediated hydrolysis of para-nitrophenyl phosphate (pNPP).
Binding affinities of SPR drug competition assays were calculated using three-parameter nonlinear regression in GraphPad Prism (v.8.3.0). Representative data of cell assays are presented as individual values and mean values (bars). n = 3 refers to biological replicates. All IC50 or EC50 values of cell assays reported were calculated using four-parameter nonlinear regression ± s.d. Bandpass features of cutoff concentrations and Bandwidth90% were estimated based on the curve fitted using bell-shaped curve nonlinear regression in GraphPad Prism (v.8.3.0). […]
Supplementary Figure 4: Design, screening and validation of BclXLhigh variants. a) Screening of BclXLhigh variants in the GEMS platform. […]
Dissociation constant measurement of BclXLhigh-v(1-3) and LD3. Equilibrium curves are fitted using […]
BclXLhigh-v1 (purple), BclXLhigh-v2 (blue), […]
a) Bcl2high-based bandpass filter designs were developed and to respond to different concentrations of […]
corresponding inhibitor. c) Screening of Bcl2high-based bandpass filter variants in the GEMS platform.
The designed binder LD3 was fused to the druglow-receptor (PSV40-IgK-Bcl2-LD3-EpoRm-IL-6RBm-pA) in one EpoR chain and Bcl2high variants with the insensitive Bcl2 (iBcl2) as control in the other EpoR chain (PSV40-IgK-Bcl2high-EpoRm-IL-6RBm-pA). HEK293T cells were transfected with indicated […]
the mean of six biological replicates ± s.d., overlaid with a scatter dot plot of the original data points.
(1 picture or pasted object on this page, not shown here)
Supplementary Figure 6: Binding affinities and drug resistances of Bcl2high-v(2,4,5) assessed by […]
a) Measurement of dissociation constants for Bcl2high-v(2,4,5) and LD3 interactions. Equilibrium curves […]
Bcl2high-v(2,4,5) measured by SPR. 5 μM of Bcl2 or indicated variants were mixed with 10 μM of […]
Bcl2high-v2 (red), Bcl2high-v4
Supplementary Figure 7: Screening of LD3 variants in CBPA11-v(1-3) and raw data of CBPA11-v(1,3) with LD3-v3 variant. a-c) Screening of LD3 and LD3-v(1-3) variants in complex with BclXL for more sensitive CBPA11-v1 (a), CBPA11-v2 (b), CBPA11-v3 (c) in the GEMS platform. The LD3 variants replaced the role of LD3 (PSV40-IgK-BclXL-LD3-v(1-3)-EpoRm-IL-6RBm-pA) in one EpoR chain and BclXLhigh-v(1-3) in the other EpoR chain (PSV40-IgK-BclXLhigh-V(1-3)-EpoRm-IL-6RBm-pA). HEK293T cells were transfected with […]

## CN(C)CC#Cc1ccc(OCCCc2sc(N3CCc4cccc(C(=O)Nc5nc6ccccc6s5)c4C3)nc2C(=O)O)c(F)c1 [A-1155463]
A-1155463 10 nM
  Normalized data (SEAP): 57.1742
  Raw data (SEAP): 4.199
A-1155463 31.6 nM
  Normalized data (SEAP): 64.0307
  Raw data (SEAP): 4.702
A-1155463 100 nM
  Normalized data (SEAP): 100
  Raw data (SEAP): 7.344
A-1155463 316 nM
  Normalized data (SEAP): 98.6857
  Raw data (SEAP): 7.247
A-1155463 1000 nM
  Normalized data (SEAP): 76.9661
  Raw data (SEAP): 5.652
A-1155463 3160 nM
  Normalized data (SEAP): 98.598
  Raw data (SEAP): 7.241
A-1155463 10000 nM
  Normalized data (SEAP): 93.3297
  Raw data (SEAP): 6.854
Supplementary Figure 9e, CBPA11-v3-BclXLv2, A-1155463 1 nM
  SEAP, replicate values: 84.4482 and 81.7463 and 104.541
Supplementary Figure 9e, CBPA11-v3-BclXLv2, A-1155463 3.18 nM
  SEAP, replicate values: 146.322 and 134.178 and 165.303
Supplementary Figure 9e, CBPA11-v3-BclXLv2, A-1155463 10 nM
  SEAP, replicate values: 324.719 and 293.474 and 344.378
Supplementary Figure 9e, CBPA11-v3-BclXLv2, A-1155463 31.8 nM
  SEAP, replicate values: 360.563 and 353.899 and 371.872
Supplementary Figure 9e, CBPA11-v3-BclXLv2, A-1155463 100 nM
  SEAP, replicate values: 397.777 and 391.029 and 415.369
Supplementary Figure 9e, CBPA11-v3-BclXLv2, A-1155463 318 nM
  SEAP, replicate values: 374.208 and 326.503 and 405.592
Supplementary Figure 9e, CBPA11-v3-BclXLv2, A-1155463 1000 nM
  SEAP, replicate values: 326.827 and 274.864 and 352.239
Supplementary Figure 9e, CBPA11-v3-BclXLv2, A-1155463 3180 nM
  SEAP, replicate values: 224.895 and 197.696 and 225.125
Supplementary Figure 9e, CBPA11-v3, A-1155463 1 nM
  SEAP, replicate values: 77.8998 and 72.2772 and 68.2722
Supplementary Figure 9e, CBPA11-v3, A-1155463 3.18 nM
  SEAP, replicate values: 101.26 and 74.5174 and 69.017
Supplementary Figure 9e, CBPA11-v3, A-1155463 10 nM
  SEAP, replicate values: 279.56 and 237.506 and 229.509
Supplementary Figure 9e, CBPA11-v3, A-1155463 31.8 nM
  SEAP, replicate values: 420.603 and 418.534 and 369.593
Supplementary Figure 9e, CBPA11-v3, A-1155463 100 nM
  SEAP, replicate values: 495.942 and 494.207 and 527.219
Supplementary Figure 9e, CBPA11-v3, A-1155463 318 nM
  SEAP, replicate values: 528.894 and 526.095 and 525.969
Supplementary Figure 9e, CBPA11-v3, A-1155463 1000 nM
  SEAP, replicate values: 429.812 and 444.52 and 449.13
Supplementary Figure 9e, CBPA11-v3, A-1155463 3180 nM
  SEAP, replicate values: 188.374
Supplementary Figure 9d, CBPA11-v1-BclXLv2, A-1155463 1 nM
  SEAP, replicate values: 111.205 and 87.5973 and 101.043
Supplementary Figure 9d, CBPA11-v1-BclXLv2, A-1155463 3.18 nM
  SEAP, replicate values: 157.154 and 178.429 and 193.635
Supplementary Figure 9d, CBPA11-v1-BclXLv2, A-1155463 10 nM
  SEAP, replicate values: 436.402 and 372.407 and 451.931
Supplementary Figure 9d, CBPA11-v1-BclXLv2, A-1155463 31.8 nM
  SEAP, replicate values: 433.431 and 447.679 and 460.586
Supplementary Figure 9d, CBPA11-v1-BclXLv2, A-1155463 100 nM
  SEAP, replicate values: 510.537 and 467.35 and 481.779
Supplementary Figure 9d, CBPA11-v1-BclXLv2, A-1155463 318 nM
  SEAP, replicate values: 466.109 and 461.812 and 531.315
Supplementary Figure 9d, CBPA11-v1-BclXLv2, A-1155463 1000 nM
  SEAP, replicate values: 444.141 and 425.472 and 444.224
Supplementary Figure 9d, CBPA11-v1-BclXLv2, A-1155463 3180 nM
  SEAP, replicate values: 353.967 and 340.947 and 373.905
Supplementary Figure 9d, CBPA11-v1-BclXLv2, A-1155463 10000 nM
  SEAP, replicate values: 194.487 and 169.62 and 189.065
Supplementary Figure 9d, CBPA11-v1, A-1155463 1 nM
  SEAP, replicate values: 63.0929 and 67.5149 and 84.3456
Supplementary Figure 9d, CBPA11-v1, A-1155463 3.18 nM
  SEAP, replicate values: 70.097 and 95.813 and 111.853
Supplementary Figure 9d, CBPA11-v1, A-1155463 10 nM
  SEAP, replicate values: 455.879 and 489.769 and 488.832
Supplementary Figure 9d, CBPA11-v1, A-1155463 31.8 nM
  SEAP, replicate values: 620.201 and 681.136 and 678.515
Supplementary Figure 9d, CBPA11-v1, A-1155463 100 nM
  SEAP, replicate values: 962.669 and 957.215 and 954.472
Supplementary Figure 9d, CBPA11-v1, A-1155463 318 nM
  SEAP, replicate values: 973.295 and 858.467 and 847.573
Supplementary Figure 9d, CBPA11-v1, A-1155463 1000 nM
  SEAP, replicate values: 855.269 and 763.206 and 684.986
Supplementary Figure 9d, CBPA11-v1, A-1155463 3180 nM
  SEAP, replicate values: 503.783 and 501.256 and 493.903
Supplementary Figure 9d, CBPA11-v1, A-1155463 10000 nM
  SEAP, replicate values: 194.615 and 191.032 and 215.159
